According to patent US20230123334A1, “AMINO LIPID COMPOUND, PREPARATION METHOD THEREFOR, AND APPLICATION THEREOF” (SHENZHEN SHENXIN BIOTECHNOLOGY CO., LTD., priority 2020, published 2023):

System: HEK293 cells
Assay: Preliminary screening as mRNA vectors, EGFP mRNA transfection of HEK293 cells
Format: cell-based
Settings: EGFP mRNA 50 ng per well, 96-well plates; percentage of GFP fluorescent cells relative to total number of cells (Hoechst)
Description: Cell line: HEK293 cells (ATCC CRL-1573™)
Medium: DMEM supplemented with 10% fetal bovine serum (Invitrogen)
Screening: cell transfection on 96-well plates
Detection (readout): percentage of the number of GFP fluorescent cells relative to the total number of cells (the total number of cells was determined using nucleus dye Hoechst). Lipofectamine2000 (Invitrogen) was used as the positive control.
Method: the experimental method was basically the same with Example 4, and the mass of EGFP mRNA (TriLink) for transfection was 50 ng per well.

| Structure (SMILES) | Absolute mRNA transfection efficiency in HEK293 cells |
| --- | --- |
| CCCCCCCCCCCNc1nc(NCCN2CCOCC2)nc(SCCCCCCCCC)n1 [Compound D2S9N11] | 44.8% |
| CCCCCCCCCCCCNc1nc(NCCN2CCOCC2)nc(SCCCCCCCCC)n1 [Compound D2S9N12] | 15.2% |
| CCCCCCCCCCCCCNc1nc(NCCN2CCOCC2)nc(SCCCCCCCCC)n1 [Compound D2S9N13] | 12.3% |
| CCCCCCCCCCCCCCCNc1nc(NCCN2CCOCC2)nc(SCCCCCCCCC)n1 [Compound D2S9N15] | 5.9% |
| CCCCCCCCCCCCCCCCNc1nc(NCCN2CCOCC2)nc(SCCCCCCCCC)n1 [Compound D2S9N16] | 1.4% |
| CCCCCCCCCCCCCCCCCCNc1nc(NCCN2CCOCC2)nc(SCCCCCCCCC)n1 [Compound D2S9N18] | 2.4% |
| CCCCCCCCCCSc1nc(NCCCCCC)nc(NCCN2CCOCC2)n1 [Compound D2S10N6] | 0.1% |
| CCCCCCCCCCSc1nc(NCCCCCCC)nc(NCCN2CCOCC2)n1 [Compound D2S10N7] | 0.5% |
| CCCCCCCCCCSc1nc(NCCCCCCCC)nc(NCCN2CCOCC2)n1 [Compound D2S10N8] | 0.5% |
| CCCCCCCCCCSc1nc(NCCCCCCCCC)nc(NCCN2CCOCC2)n1 [Compound D2S10N9] | 0.5% |
| CCCCCCCCCCCNc1nc(NCCN2CCOCC2)nc(SCCCCCCCCCC)n1 [Compound D2S10N11] | 0.2% |
| CCCCCCCCCCCCNc1nc(NCCN2CCOCC2)nc(SCCCCCCCCCC)n1 [Compound D2S10N12] | 1.5% |
| CCCCCCCCCCCCCNc1nc(NCCN2CCOCC2)nc(SCCCCCCCCCC)n1 [Compound D2S10N13] | 0.2% |
| CCCCCCCCCCCCCCCNc1nc(NCCN2CCOCC2)nc(SCCCCCCCCCC)n1 [Compound D2S10N15] | 1.3% |
| CCCCCCCCCCCCCCCCNc1nc(NCCN2CCOCC2)nc(SCCCCCCCCCC)n1 [Compound D2S10N16] | 0.6% |
| CCCCCCCCCCCCCCCCCCNc1nc(NCCN2CCOCC2)nc(SCCCCCCCCCC)n1 [Compound D2S10N18] | 0.0% |
| CCCCCCCCCCCSc1nc(NCCCCCC)nc(NCCN2CCOCC2)n1 [Compound D2S11N6] | 5.4% |
| CCCCCCCCCCCSc1nc(NCCCCCCC)nc(NCCN2CCOCC2)n1 [Compound D2S11N7] | 8.5% |
| CCCCCCCCCCCSc1nc(NCCCCCCCC)nc(NCCN2CCOCC2)n1 [Compound D2S11N8] | 2.4% |
| CCCCCCCCCCCSc1nc(NCCCCCCCCC)nc(NCCN2CCOCC2)n1 [Compound D2S11N9] | 2.5% |

| Structure (SMILES) | Absolute mRNA transfection efficiency in HEK293 cells |
| --- | --- |
| CCCCCCCCCCCNc1nc(NCCN2CCOCC2)nc(SCCCCCCCCCCC)n1 [Compound D2S11N11] | 0.6% |
| CCCCCCCCCCCCNc1nc(NCCN2CCOCC2)nc(SCCCCCCCCCCC)n1 [Compound D2S11N12] | 3.1% |
| CCCCCCCCCCCCCNc1nc(NCCN2CCOCC2)nc(SCCCCCCCCCCC)n1 [Compound D2S11N13] | 1.9% |
| CCCCCCCCCCCCCCCNc1nc(NCCN2CCOCC2)nc(SCCCCCCCCCCC)n1 [Compound D2S11N15] | 2.8% |
| CCCCCCCCCCCCCCCCNc1nc(NCCN2CCOCC2)nc(SCCCCCCCCCCC)n1 [Compound D2S11N16] | 1.1% |
| CCCCCCCCCCCCCCCCCCNc1nc(NCCN2CCOCC2)nc(SCCCCCCCCCCC)n1 [Compound D2S11N18] | 0.0% |
| CCCCCCCCCCCCSc1nc(NCCCCCC)nc(NCCN2CCOCC2)n1 [Compound D2S12N6] | 0.0% |
| CCCCCCCCCCCCSc1nc(NCCCCCCC)nc(NCCN2CCOCC2)n1 [Compound D2S12N7] | 0.4% |
| CCCCCCCCCCCCSc1nc(NCCCCCCCC)nc(NCCN2CCOCC2)n1 [Compound D2S12N8] | 1.6% |
| CCCCCCCCCCCCSc1nc(NCCCCCCCCC)nc(NCCN2CCOCC2)n1 [Compound D2S12N9] | 1.1% |
| CCCCCCCCCCCCSc1nc(NCCCCCCCCCCC)nc(NCCN2CCOCC2)n1 [Compound D2S12N11] | 0.3% |
| CCCCCCCCCCCCNc1nc(NCCN2CCOCC2)nc(SCCCCCCCCCCCC)n1 [Compound D2S12N12] | 0.0% |
| CCCCCCCCCCCCCNc1nc(NCCN2CCOCC2)nc(SCCCCCCCCCCCC)n1 [Compound D2S12N13] | 0.0% |
| CCCCCCCCCCCCCCCNc1nc(NCCN2CCOCC2)nc(SCCCCCCCCCCCC)n1 [Compound D2S12N15] | 0.0% |
| CCCCCCCCCCCCCCCCNc1nc(NCCN2CCOCC2)nc(SCCCCCCCCCCCC)n1 [Compound D2S12N16] | 0.8% |
| CCCCCCCCCCCCCCCCCCNc1nc(NCCN2CCOCC2)nc(SCCCCCCCCCCCC)n1 [Compound D2S12N18] | 0.8% |
| CCCCCCCCCCCCCCSc1nc(NCCCCCC)nc(NCCN2CCOCC2)n1 [Compound D2S14N6] | 8.8% |
| CCCCCCCCCCCCCCSc1nc(NCCCCCCC)nc(NCCN2CCOCC2)n1 [Compound D2S14N7] | 4.5% |
| CCCCCCCCCCCCCCSc1nc(NCCCCCCCC)nc(NCCN2CCOCC2)n1 [Compound D2S14N8] | 3.7% |
| CCCCCCCCCCCCCCSc1nc(NCCCCCCCCC)nc(NCCN2CCOCC2)n1 [Compound D2S14N9] | 7.4% |

| Structure (SMILES) | Absolute mRNA transfection efficiency in HEK293 cells |
| --- | --- |
| CCCCCCCCCCCCCCSc1nc(NCCCCCCCCCCC)nc(NCCN2CCOCC2)n1 [Compound D2S14N11] | 3.5% |
| CCCCCCCCCCCCCCSc1nc(NCCCCCCCCCCCC)nc(NCCN2CCOCC2)n1 [Compound D2S14N12] | 2.1% |
| CCCCCCCCCCCCCCSc1nc(NCCCCCCCCCCCCC)nc(NCCN2CCOCC2)n1 [Compound D2S14N13] | 1.1% |
| CCCCCCCCCCCCCCCNc1nc(NCCN2CCOCC2)nc(SCCCCCCCCCCCCCC)n1 [Compound D2S14N15] | 0.0% |
| CCCCCCCCCCCCCCCCNc1nc(NCCN2CCOCC2)nc(SCCCCCCCCCCCCCC)n1 [Compound D2S14N16] | 0.1% |
| CCCCCCCCCCCCCCCCCCNc1nc(NCCN2CCOCC2)nc(SCCCCCCCCCCCCCC)n1 [Compound D2S14N18] | 0.1% |
| CCCCCCCCCCCCCCCSc1nc(NCCCCCC)nc(NCCN2CCOCC2)n1 [Compound D2S15N6] | 4.9% |
| CCCCCCCCCCCCCCCSc1nc(NCCCCCCC)nc(NCCN2CCOCC2)n1 [Compound D2S15N7] | 4.5% |
| CCCCCCCCCCCCCCCSc1nc(NCCCCCCCC)nc(NCCN2CCOCC2)n1 [Compound D2S15N8] | 2.2% |
| CCCCCCCCCCCCCCCSc1nc(NCCCCCCCCC)nc(NCCN2CCOCC2)n1 [Compound D2S15N9] | 1.1% |
| CCCCCCCCCCCCCCCSc1nc(NCCCCCCCCCCC)nc(NCCN2CCOCC2)n1 [Compound D2S15N11] | 3.3% |
| CCCCCCCCCCCCCCCSc1nc(NCCCCCCCCCCCC)nc(NCCN2CCOCC2)n1 [Compound D2S15N12] | 0.1% |
| CCCCCCCCCCCCCCCSc1nc(NCCCCCCCCCCCCC)nc(NCCN2CCOCC2)n1 [Compound D2S15N13] | 0.1% |
| CCCCCCCCCCCCCCCNc1nc(NCCN2CCOCC2)nc(SCCCCCCCCCCCCCCC)n1 [Compound D2S15N15] | 0.2% |
| CCCCCCCCCCCCCCCCNc1nc(NCCN2CCOCC2)nc(SCCCCCCCCCCCCCCC)n1 [Compound D2S15N16] | 1.4% |
| CCCCCCCCCCCCCCCCCCNc1nc(NCCN2CCOCC2)nc(SCCCCCCCCCCCCCCC)n1 [Compound D2S15N18] | 0.3% |
| CCCCCCCCCCCCCCCCSc1nc(NCCCCCC)nc(NCCN2CCOCC2)n1 [Compound D2S16N6] | 23.6% |
| CCCCCCCCCCCCCCCCSc1nc(NCCCCCCC)nc(NCCN2CCOCC2)n1 [Compound D2S16N7] | 10.0% |
| CCCCCCCCCCCCCCCCSc1nc(NCCCCCCCC)nc(NCCN2CCOCC2)n1 [Compound D2S16N8] | 19.1% |
| CCCCCCCCCCCCCCCCSc1nc(NCCCCCCCCC)nc(NCCN2CCOCC2)n1 [Compound D2S16N9] | 7.2% |
